Results from the supplement of paper PMC11451515.

What was measured:
Conditions in all cases: 48 h
NOMO1 [1] = assay: cell viability relative to DMSO control; higher = less cytotoxic
Outline: (§1)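 Viability was expressed as a per-plate percentage of DMSO wells, with cell-free wells as background. Leukemia cells (NOMO1 or SEM at 500 cells/well, P12-Ichikawa at 1000 cells/well) were adapted for at least four passages in each medium and seeded in 1536-well plates (5 μl). Library compounds in DMSO were pin-dosed over an 11-point threefold series from 47 μM to 0.79 nM, and CellTiter-Glo One luminescence was read after 48 h at 37°C.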

P12-Ichikawa [2] = assay: as above
Outline: as §1

SEM cells [3] = assay: as above
Outline: as §1

NOMO1 [4] = assay: AUC of viability dose-response curve (% viability x log10 dose units); higher = less sensitive
Outline: (§2)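 Viability of medium-adapted leukemia cells was measured by CellTiter-Glo One luminescence after 48 h at 37°C with library compounds in DMSO. Doses were 11 threefold steps from 47 μM to 0.79 nM, in 1536-well plates at 500 or 1000 cells/well. Signals were normalised per plate to DMSO and cell-free wells and fitted with a four-parameter log-logistic model on log10 dose. Area under the curve was integrated by trapezoidal rule, with curves exceeding full viability scaled and failed quality-control curves removed.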

P12-Ichikawa [5] = assay: as above
Outline: as §2

SEM cells [6] = assay: as above
Outline: as §2

CN(C)CCOC(c1ccccc1)c1ccccc1
cell viability [%]
Conditions	NOMO1 [1]	P12-Ichikawa [2]	SEM cells [3]
HPLM + 10% dialyzed FBS, 0.000781 µM	94.4	104	90.4
HPLM + 10% dialyzed FBS, 0.00234 µM	84	107	90.5
HPLM + 10% dialyzed FBS, 0.00702 µM	105	105	108
HPLM + 10% dialyzed FBS, 0.0211 µM	116	103	110
HPLM + 10% dialyzed FBS, 0.0632 µM	111	111	106
HPLM + 10% dialyzed FBS, 0.19 µM	112	111	98.1
HPLM + 10% dialyzed FBS, 0.569 µM	112	112	97.1
HPLM + 10% dialyzed FBS, 1.71 µM	113	103	94.3
HPLM + 10% dialyzed FBS, 5.12 µM	109	109	91.8
HPLM + 10% dialyzed FBS, 15.4 µM	104	111	92.9
HPLM + 10% dialyzed FBS, 46.1 µM	83.5	82.8	90.3
RPMI 5 mM glucose + 10% FBS, 0.000781 µM	112	96.1	107
RPMI 5 mM glucose + 10% FBS, 0.00234 µM	111	105	107
RPMI 5 mM glucose + 10% FBS, 0.00702 µM	106	99.4	113
RPMI 5 mM glucose + 10% FBS, 0.0211 µM	121	112	105
RPMI 5 mM glucose + 10% FBS, 0.0632 µM	117	110	111
RPMI 5 mM glucose + 10% FBS, 0.19 µM	106	105	114
RPMI 5 mM glucose + 10% FBS, 0.569 µM	115	105	104
RPMI 5 mM glucose + 10% FBS, 1.71 µM	107	105	117
RPMI 5 mM glucose + 10% FBS, 5.12 µM	107	100	94.1
RPMI 5 mM glucose + 10% FBS, 15.4 µM	101	110	116
RPMI 5 mM glucose + 10% FBS, 46.1 µM	53.6	85.5	97.5
RPMI 5 mM glucose + 10% dialyzed FBS, 0.000781 µM	94.6	94	104
RPMI 5 mM glucose + 10% dialyzed FBS, 0.00234 µM	112	102	96.8
RPMI 5 mM glucose + 10% dialyzed FBS, 0.00702 µM	101	104	115
RPMI 5 mM glucose + 10% dialyzed FBS, 0.0211 µM	113	104	121
RPMI 5 mM glucose + 10% dialyzed FBS, 0.0632 µM	122	112	119
RPMI 5 mM glucose + 10% dialyzed FBS, 0.19 µM	111	104	114
RPMI 5 mM glucose + 10% dialyzed FBS, 0.569 µM	110	105	122
RPMI 5 mM glucose + 10% dialyzed FBS, 1.71 µM	109	101	102
RPMI 5 mM glucose + 10% dialyzed FBS, 5.12 µM	104	111	94.8
RPMI 5 mM glucose + 10% dialyzed FBS, 15.4 µM	119	96.8	94.4
RPMI 5 mM glucose + 10% dialyzed FBS, 46.1 µM	64.6	83	92

AUC of viability dose-response curve
Conditions	NOMO1 [4]	P12-Ichikawa [5]	SEM cells [6]
HPLM + 10% dialyzed FBS	470	471	460
RPMI 5 mM glucose + 10% FBS	459	473	473
RPMI 5 mM glucose + 10% dialyzed FBS	467	469	452

Cc1cc(Nc2ncc(Cl)c(Nc3ccccc3[S+](=O)([O-])C(C)C)n2)c(OC(C)C)cc1C1CCNCC1
cell viability [%]
Conditions	NOMO1 [1]	P12-Ichikawa [2]	SEM cells [3]
HPLM + 10% dialyzed FBS, 0.000781 µM	–	111	115
HPLM + 10% dialyzed FBS, 0.00234 µM	–	113	114
HPLM + 10% dialyzed FBS, 0.00702 µM	–	110	119
HPLM + 10% dialyzed FBS, 0.0211 µM	–	117	123
HPLM + 10% dialyzed FBS, 0.0632 µM	–	112	120
HPLM + 10% dialyzed FBS, 0.19 µM	–	115	109
HPLM + 10% dialyzed FBS, 0.569 µM	–	101	96
HPLM + 10% dialyzed FBS, 1.71 µM	–	105	88.1
HPLM + 10% dialyzed FBS, 5.12 µM	–	105	69
HPLM + 10% dialyzed FBS, 15.4 µM	–	90.6	48.3
HPLM + 10% dialyzed FBS, 46.1 µM	–	30.2	5.59
RPMI 5 mM glucose + 10% FBS, 0.000781 µM	126	111	112
RPMI 5 mM glucose + 10% FBS, 0.00234 µM	113	104	114
RPMI 5 mM glucose + 10% FBS, 0.00702 µM	112	113	103
RPMI 5 mM glucose + 10% FBS, 0.0211 µM	132	118	118
RPMI 5 mM glucose + 10% FBS, 0.0632 µM	126	125	119
RPMI 5 mM glucose + 10% FBS, 0.19 µM	127	112	101
RPMI 5 mM glucose + 10% FBS, 0.569 µM	115	108	94.2
RPMI 5 mM glucose + 10% FBS, 1.71 µM	97	96.1	101
RPMI 5 mM glucose + 10% FBS, 5.12 µM	76.8	94.1	65.3
RPMI 5 mM glucose + 10% FBS, 15.4 µM	54.1	69.9	50.5
RPMI 5 mM glucose + 10% FBS, 46.1 µM	6.06	5.5	5.71
RPMI 5 mM glucose + 10% dialyzed FBS, 0.000781 µM	127	117	125
RPMI 5 mM glucose + 10% dialyzed FBS, 0.00234 µM	120	117	121
RPMI 5 mM glucose + 10% dialyzed FBS, 0.00702 µM	112	118	104
RPMI 5 mM glucose + 10% dialyzed FBS, 0.0211 µM	117	116	146
RPMI 5 mM glucose + 10% dialyzed FBS, 0.0632 µM	122	115	142
RPMI 5 mM glucose + 10% dialyzed FBS, 0.19 µM	109	117	121
RPMI 5 mM glucose + 10% dialyzed FBS, 0.569 µM	105	111	110
RPMI 5 mM glucose + 10% dialyzed FBS, 1.71 µM	114	113	100
RPMI 5 mM glucose + 10% dialyzed FBS, 5.12 µM	67	107	80.9
RPMI 5 mM glucose + 10% dialyzed FBS, 15.4 µM	52	89.3	52.2
RPMI 5 mM glucose + 10% dialyzed FBS, 46.1 µM	4.03	10.5	6.92

AUC of viability dose-response curve
Conditions	NOMO1 [4]	P12-Ichikawa [5]	SEM cells [6]
HPLM + 10% dialyzed FBS	396	449	380
RPMI 5 mM glucose + 10% FBS	395	425	393
RPMI 5 mM glucose + 10% dialyzed FBS	395	442	392

COc1ccc(/C=C\c2cc(OC)c(OC)c(OC)c2)cc1O
cell viability [%]
Conditions	NOMO1 [1]	P12-Ichikawa [2]	SEM cells [3]
HPLM + 10% dialyzed FBS, 0.000781 µM	43.4	21	27.3
HPLM + 10% dialyzed FBS, 0.00234 µM	51.5	15	26.8
HPLM + 10% dialyzed FBS, 0.00702 µM	49	12.9	29.2
HPLM + 10% dialyzed FBS, 0.0211 µM	49	11.3	27.9
HPLM + 10% dialyzed FBS, 0.0632 µM	44.6	11.9	19.5
HPLM + 10% dialyzed FBS, 0.19 µM	47	9.68	15.9
HPLM + 10% dialyzed FBS, 0.569 µM	41.7	9.98	16.8
HPLM + 10% dialyzed FBS, 1.71 µM	36.6	8.29	12.7
HPLM + 10% dialyzed FBS, 5.12 µM	36.1	5.6	8.59
HPLM + 10% dialyzed FBS, 15.4 µM	25.3	4.13	6.14
HPLM + 10% dialyzed FBS, 46.1 µM	23.2	3.74	3.96
RPMI 5 mM glucose + 10% FBS, 0.000781 µM	32.1	27.5	20
RPMI 5 mM glucose + 10% FBS, 0.00234 µM	33.7	22	22.4
RPMI 5 mM glucose + 10% FBS, 0.00702 µM	31.2	13.8	23
RPMI 5 mM glucose + 10% FBS, 0.0211 µM	31.2	14.2	15.1
RPMI 5 mM glucose + 10% FBS, 0.0632 µM	31.7	11.2	8.98
RPMI 5 mM glucose + 10% FBS, 0.19 µM	26.6	11.2	7.29
RPMI 5 mM glucose + 10% FBS, 0.569 µM	22.5	10.4	7.3
RPMI 5 mM glucose + 10% FBS, 1.71 µM	22.1	10.6	5.54
RPMI 5 mM glucose + 10% FBS, 5.12 µM	23.3	7.66	5.21
RPMI 5 mM glucose + 10% FBS, 15.4 µM	19	3.98	3.08
RPMI 5 mM glucose + 10% FBS, 46.1 µM	14.7	2.78	2.03
RPMI 5 mM glucose + 10% dialyzed FBS, 0.000781 µM	37.3	33.5	23.3
RPMI 5 mM glucose + 10% dialyzed FBS, 0.00234 µM	35.2	26.7	28.5
RPMI 5 mM glucose + 10% dialyzed FBS, 0.00702 µM	40.9	20.4	33.5
RPMI 5 mM glucose + 10% dialyzed FBS, 0.0211 µM	38.7	14.9	25.2
RPMI 5 mM glucose + 10% dialyzed FBS, 0.0632 µM	34.9	15.3	12.6
RPMI 5 mM glucose + 10% dialyzed FBS, 0.19 µM	33.4	14.3	10.5
RPMI 5 mM glucose + 10% dialyzed FBS, 0.569 µM	31.8	13.1	9.81
RPMI 5 mM glucose + 10% dialyzed FBS, 1.71 µM	30.7	11	7.46
RPMI 5 mM glucose + 10% dialyzed FBS, 5.12 µM	27.8	9.65	6.37
RPMI 5 mM glucose + 10% dialyzed FBS, 15.4 µM	23.4	7.03	4.4
RPMI 5 mM glucose + 10% dialyzed FBS, 46.1 µM	20	3.92	2.55

AUC of viability dose-response curve
Conditions	NOMO1 [4]	P12-Ichikawa [5]	SEM cells [6]
HPLM + 10% dialyzed FBS	197	48.7	85.1
RPMI 5 mM glucose + 10% FBS	126	57	50.9
RPMI 5 mM glucose + 10% dialyzed FBS	155	71.5	70
